Measurements published in patent US11858941B2, “Heterocyclic and heteroaryl compounds for treating Huntington's disease” (PTC THERAPEUTICS, INC., priority 2018, dated 2024).

System: Endogenous Huntingtin Protein
Assay: Endogenous Huntingtin Protein Assay (Meso Scale Discovery ELISA-based electrochemiluminescence)
Type: cell-based
Conditions: MSD plates coated with MW1 (expanded polyglutamine) or MAB2166 capture antibody; lysates
Description: Compounds of Formula (I) were tested using the Meso Scale Discovery (MSD) Assay provided in International Application No. PCT/US2016/066042, filed on Dec. 11, 2016 and claiming priority to United States Provisional Application U.S. 62/265,652 filed on Dec. 10, 2015, the entire contents of which are incorporated herein by reference.
The Endogenous Huntingtin Protein assay used in Example 1 was developed using the ELISA-based MSD electrochemiluminescence assay platform.
Endogenous Huntingtin Protein Assay
Meso Scale Discovery (MSD) 96-well or 384-well plates were coated overnight at 4° C. with MW1 (expanded polyglutamine) or MAB2166 monoclonal antibody (for capture) at a concentration of 1 μg/mL in PBS (30 μL per well). Plates were then washed three times with 300 μL wash buffer (0.05% Tween-20 in PBS) and blocked (100 μL blocking buffer; 5% BSA in PBS) for 4-5 hours at room temperature with rotational shaking and then washed three times with wash buffer.
Samples (25 μL) were transferred to the antibody-coated MSD plate and incubated overnight at 4° C. After removal of the lysates, the plate was washed three times with wash buffer, and 25 μL of #5656S (Cell signaling; rabbit monoclonal) secondary antibody (diluted to 0.25 μg/mL in 0.05% Tween-20 in blocking buffer) was added to each well and incubated with shaking for 1 Hour at room temperature. Following incubation with the secondary antibody, the wells were rinsed with wash buffer after which 25 μL of goat anti-rabbit SULFO TAG secondary detection antibody (required aspect of the MSD system) (diluted to 0.25 μg/mL in 0.05% Tween-20 in blocking buffer) was added to each well and incubated with shaking for 1 hour at room temperature. After rinsing three times with wash buffer, 150 μL of read buffer T with surfactant (MSD) were added to each empty well, and the plate was imaged on a SI 6000 imager (MSD) according to manufacturers' instructions provided for 96- or 384-well plates.

Row | SMILES | IC50 [µM]
1 | CC1(C)CC(n2nnc3cc(-c4ccc(-c5ccnc6[nH]ccc56)cc4O)nnc32)CC(C)(C)N1 [Cpd 118, 5-(1H-pyrrolo[2,3-b]pyridin-4-yl)-2-[3-(2,2,6,6-tetramethylpiperidin-4-yl)-3H-[1,2,3]triazolo[4,5-c]pyridazin-6-yl]phenol] | 1 to 3
2 | Fc1c(-c2cn[nH]c2)ccc(-c2cc3c(nn2)N(C2CC4CCC(C2)N4)CC3)c1F (stereo not drawn) [Cpd 36, 7-[(3-exo)-8-azabicyclo[3.2.1]oct-3-yl]-3-[2,3-difluoro-4-(1H-pyrazol-4-yl)phenyl]-6,7-dihydro-5H-pyrrolo[2,3-c]pyridazine] | 0.1 to 0.5
3 | Oc1cc(-c2cn[nH]c2)ccc1-c1cc2[nH]cc(C3CCNCC3)c2nn1 [Cpd 12, 2-[7-(piperidin-4-yl)-5H-pyrrolo[3,2-c]pyridazin-3-yl]-5-(1H-pyrazol-4-yl)phenol] | 0.1 to 0.5
4 | CC1(C)CC(n2nnc3cc(-c4cc(F)c(-c5ccc(O)cc5)cc4O)nnc32)CC(C)(C)N1 [Cpd 53, 6-fluoro-4-[3-(2,2,6,6-tetramethylpiperidin-4-yl)-3H-[1,2,3]triazolo[4,5-c]pyridazin-6-yl][1,1′-biphenyl]-3,4′-diol] | ≤ 0.1
5 | CC1(C)CC(n2ccc3nc(-c4cc(F)c(-c5cn[nH]c5)cc4F)cnc32)CC(C)(C)N1 [Cpd 16, 2-[2,5-difluoro-4-(1H-pyrazol-4-yl)phenyl]-5-(2,2,6,6-tetramethylpiperidin-4-yl)-5H-pyrrolo[2,3-b]pyrazine] | 0.1 to 0.5
6 | CC1(C)C=C(c2coc3cc(-c4ccc(-c5cn[nH]c5)cc4O)nnc23)CC(C)(C)N1 [Cpd 105, 5-(1H-pyrazol-4-yl)-2-[7-(2,2,6,6-tetramethyl-1,2,3,6-tetrahydropyridin-4-yl)furo[3,2-c]pyridazin-3-yl]phenol] | ≤ 0.1
7 | CC1(C)CC(n2nnc3cc(-c4ccc(-c5ncco5)cc4O)nnc32)CC(C)(C)N1 [Cpd 111, 5-(1,3-oxazol-2-yl)-2-[3-(2,2,6,6-tetramethylpiperidin-4-yl)-3H-[1,2,3]triazolo[4,5-c]pyridazin-6-yl]phenol] | ≤ 0.1
8 | CC1(C)CC(n2nnc3cc(-c4ccc(-c5cnc6nccn6c5)cc4O)nnc32)CC(C)(C)N1 [Cpd 160, 5-(imidazo[1,2-a]pyrimidin-6-yl)-2-(3-(2,2,6,6-tetramethylpiperidin-4-yl)-3H-[1,2,3]triazolo[4,5-c]pyridazin-6-yl)phenol] | 0.1 to 0.5
9 | CC1(C)CC(n2nnc3cc(-c4ccc(-c5cn[nH]c5)c5nn[nH]c45)nnc32)CC(C)(C)N1 [Cpd 117, 6-[4-(1H-pyrazol-4-yl)-1H-benzotriazol-7-yl]-3-(2,2,6,6-tetramethylpiperidin-4-yl)-3H-[1,2,3]triazolo[4,5-c]pyridazine] | 3 to 9
10 | CC1(C)CC(n2nnc3cc(-c4ccc(-c5ccn6ccnc6c5)cc4O)nnc32)CC(C)(C)N1 [Cpd 90, 5-(imidazo[1,2-a]pyridin-7-yl)-2-[3-(2,2,6,6-tetramethylpiperidin-4-yl)-3H-[1,2,3]triazolo[4,5-c]pyridazin-6-yl]phenol] | 0.1 to 0.5
11 | Oc1cc(-c2cn[nH]c2)ccc1-c1cnc2c(cnn2C2CCNCC2)n1 [Cpd 19, 2-[1-(piperidin-4-yl)-1H-pyrazolo[3,4-b]pyrazin-5-yl]-5-(1H-pyrazol-4-yl)phenol] | 1 to 3
12 | CC1(C)CC(n2nnc3cc(-c4ccc(-c5ccccn5)cc4O)nnc32)CC(C)(C)N1 [Cpd 61, 5-(pyridin-2-yl)-2-[3-(2,2,6,6-tetramethylpiperidin-4-yl)-3H-[1,2,3]triazolo[4,5-c]pyridazin-6-yl]phenol] | 1 to 3
13 | CC1(C)CC(n2nnc3cc(-c4ccc(-c5cc(F)c6nn[nH]c6c5)cc4O)nnc32)CC(C)(C)N1 [Cpd 135, 5-(4-fluoro-1H-benzotriazol-6-yl)-2-[3-(2,2,6,6-tetramethylpiperidin-4-yl)-3H-[1,2,3]triazolo[4,5-c]pyridazin-6-yl]phenol] | ≤ 0.1
14 | CC1(C)CC(n2nnc3cc(-c4ccc(-c5ccncn5)cc4O)nnc32)CC(C)(C)N1 [Cpd 75, 5-(pyrimidin-4-yl)-2-[3-(2,2,6,6-tetramethylpiperidin-4-yl)-3H-[1,2,3]triazolo[4,5-c]pyridazin-6-yl]phenol] | 0.1 to 0.5
15 | CC1(C)CC(n2cnc3cc(-c4cc(F)c(-c5cn[nH]c5)cc4F)nnc32)CC(C)(C)N1 [Cpd 4, 3-[2,5-difluoro-4-(1H-pyrazol-4-yl)phenyl]-7-(2,2,6,6-tetramethylpiperidin-4-yl)-7H-imidazo[4,5-c]pyridazine] | ≤ 0.1
16 | Cn1ccc(-c2ccc(-c3cc4nnn(C5CC(C)(C)NC(C)(C)C5)c4nn3)c(O)c2)n1 [Cpd 51, 5-(1-methyl-1H-pyrazol-3-yl)-2-[3-(2,2,6,6-tetramethylpiperidin-4-yl)-3H-[1,2,3]triazolo[4,5-c]pyridazin-6-yl]phenol] | 0.1 to 0.5
17 | CC1(C)CC(n2nnc3cc(-c4ccc(-c5cnc6nn[nH]c6c5)cc4O)nnc32)CC(C)(C)N1 [Cpd 145, 2-[3-(2,2,6,6-tetramethylpiperidin-4-yl)-3H-[1,2,3]triazolo[4,5-c]pyridazin-6-yl]-5-(1H-[1,2,3]triazolo[4,5-b]pyridin-6-yl)phenol] | 1 to 3
18 | CC1(C)CC(n2nnc3cc(-c4ccc(-c5cn[nH]c5)cc4O)nnc32)CCN1 (stereo not drawn) [Cpd 56, 2-[3-(2,2-dimethylpiperidin-4-yl)-3H-[1,2,3]triazolo[4,5-c]pyridazin-6-yl]-5-(1H-pyrazol-4-yl)phenol] | 0.1 to 0.5
19 | Cn1cnc(-c2ccc(-c3cc4nnn([C@H]5CC(C)(C)NC(C)(C)[C@H]5F)c4nn3)c(O)c2)cc1=O [Cpd 172, 6-(4-{3-[(3S,4S)-3-fluoro-2,2,6,6-tetramethylpiperidin-4-yl]-3H-[1,2,3]triazolo[4,5-c]pyridazin-6-yl}-3-hydroxyphenyl)-3-methylpyrimidin-4(3H)-one] | 0.1 to 0.5
20 | Cn1ncc(-c2ccc(-c3cc4nnn(C5CC(C)(C)NC(C)(C)C5)c4nn3)c(O)c2)n1 [Cpd 151, 5-(2-methyl-2H-1,2,3-triazol-4-yl)-2-[3-(2,2,6,6-tetramethylpiperidin-4-yl)-3H-[1,2,3]triazolo[4,5-c]pyridazin-6-yl]phenol] | ≤ 0.1
21 | CC1(C)CC(n2cnc3cc(-c4ncc(-c5cn[nH]c5)cc4O)nnc32)CC(C)(C)N1 [Cpd 141, 5-(1H-pyrazol-4-yl)-2-[7-(2,2,6,6-tetramethylpiperidin-4-yl)-7H-imidazo[4,5-c]pyridazin-3-yl]pyridin-3-ol] | ≤ 0.1
22 | CC1(C)CC(n2ncc3cc(-c4ccc(-c5c[nH]nc5F)cc4O)nnc32)CC(C)(C)N1 [Cpd 161, 5-(3-fluoro-1H-pyrazol-4-yl)-2-(1-(2,2,6,6-tetramethylpiperidin-4-yl)-1H-pyrazolo[3,4-c]pyridazin-5-yl)phenol] | ≤ 0.1
23 | CC1(C)CC(n2cnc3cc(-c4ccc(-c5cn[nH]c5)cc4O)nnc32)CC(C)(C)N1 [Cpd 3, 5-(1H-pyrazol-4-yl)-2-[7-(2,2,6,6-tetramethylpiperidin-4-yl)-7H-imidazo[4,5-c]pyridazin-3-yl]phenol] | ≤ 0.1
24 | Cn1ccc(-c2ccc(-c3cc4nnn(C5CC(C)(C)NC(C)(C)C5)c4nn3)c(O)c2)cc1=O [Cpd 37, 4-{3-hydroxy-4-[3-(2,2,6,6-tetramethylpiperidin-4-yl)-3H-[1,2,3]triazolo[4,5-c]pyridazin-6-yl]phenyl}-1-methylpyridin-2(1H)-one] | ≤ 0.1
